Test results taken from the NIST ThermoML archive (doi:10.1016/j.jct.2016.01.002).

Assay: xn = mol fraction of the nth substance listed
Conditions: 100 kPa, Liquid; for electrical conductivity: Direct current cell with electrodes; for mass density: Vibrating tube method; for viscosity: Concentric cylinders viscometry

[Cl][Fe]([Cl])[Cl] [ferric chloride] + CCCCn1cc[n+](C)c1.[Cl-]
Conditions	electrical conductivity [S/m]	mass density [kg/m3]	viscosity [mPa·s]
293.15 K, x1 = 0.3704	0.1033	1279.5	–
293.15 K, x1 = 0.4	0.172	1299.3	–
293.15 K, x1 = 0.4348	0.306	1322.8	–
293.15 K, x1 = 0.4545	0.406	1337.1	–
293.15 K, x1 = 0.4762	0.541	1352.4	–
293.15 K, x1 = 0.5	0.722	1369.9	–
293.15 K, x1 = 0.5238	0.675	1391.6	–
293.15 K, x1 = 0.5652	0.626	1433.4	–
293.15 K, x1 = 0.6	0.604	1468.1	–
298.15 K, x1 = 0.3704	0.1436	1275.8	195.6
298.15 K, x1 = 0.4	0.228	1295.2	123
298.15 K, x1 = 0.4348	0.387	1318.7	70.2
298.15 K, x1 = 0.4545	0.502	1332.9	51.1
298.15 K, x1 = 0.4762	0.658	1348.3	38.7
298.15 K, x1 = 0.5	0.864	1365.7	31.2
298.15 K, x1 = 0.5238	0.809	1387.4	30.1
298.15 K, x1 = 0.5652	0.747	1428.8	28.4
298.15 K, x1 = 0.6	0.719	1463.5	27.4
303.15 K, x1 = 0.3704	0.192	1271.9	–
303.15 K, x1 = 0.4	0.295	1291.2	–
303.15 K, x1 = 0.4348	0.478	1314.4	–
303.15 K, x1 = 0.4545	0.61	1328.8	–
303.15 K, x1 = 0.4762	0.786	1343.8	–
303.15 K, x1 = 0.5	1.011	1361.4	–
303.15 K, x1 = 0.5238	0.952	1383.4	–
303.15 K, x1 = 0.5652	0.878	1424.3	–
303.15 K, x1 = 0.6	0.84	1458.4	–
308.15 K, x1 = 0.3704	0.25	1268.1	–
308.15 K, x1 = 0.4	0.371	1287.4	–
308.15 K, x1 = 0.4348	0.582	1310.2	–
308.15 K, x1 = 0.4545	0.728	1324.8	–
308.15 K, x1 = 0.4762	0.926	1339.7	–
308.15 K, x1 = 0.5	1.18	1357.3	–
308.15 K, x1 = 0.5238	1.105	1378.9	–
308.15 K, x1 = 0.5652	1.017	1420	–
308.15 K, x1 = 0.6	0.973	1454.3	–
313.15 K, x1 = 0.3704	0.316	1264.2	–
313.15 K, x1 = 0.4	0.457	1283.3	–
313.15 K, x1 = 0.4348	0.696	1306.5	–
313.15 K, x1 = 0.4545	0.858	1320.6	–
313.15 K, x1 = 0.4762	1.07	1335.6	–
313.15 K, x1 = 0.5	1.35	1353.1	–
313.15 K, x1 = 0.5238	1.26	1374.5	–
313.15 K, x1 = 0.5652	1.16	1415.6	–
313.15 K, x1 = 0.6	1.114	1449.7	–
318.15 K, x1 = 0.3704	0.394	1260.6	–
318.15 K, x1 = 0.4	0.556	1279.6	–
318.15 K, x1 = 0.4348	0.823	1302.4	–
318.15 K, x1 = 0.4545	0.998	1316.7	–
318.15 K, x1 = 0.4762	1.233	1331.6	–
318.15 K, x1 = 0.5	1.535	1349	–
318.15 K, x1 = 0.5238	1.44	1370.4	–
318.15 K, x1 = 0.5652	1.325	1411.2	–
318.15 K, x1 = 0.6	1.26	1445.3	–
323.15 K, x1 = 0.3704	0.483	1256.7	–
323.15 K, x1 = 0.4	0.666	1275.7	–
323.15 K, x1 = 0.4348	0.961	1298.5	–
323.15 K, x1 = 0.4545	1.15	1312.6	–
323.15 K, x1 = 0.4762	1.4	1327.5	–
323.15 K, x1 = 0.5	1.726	1344.7	–
323.15 K, x1 = 0.5238	1.623	1366.2	–
323.15 K, x1 = 0.5652	1.5	1406.7	–
323.15 K, x1 = 0.6	1.423	1440.7	–
328.15 K, x1 = 0.3704	0.581	1253	–
328.15 K, x1 = 0.4	0.783	1271.8	–
328.15 K, x1 = 0.4348	1.108	1294.6	–
328.15 K, x1 = 0.4545	1.311	1308.7	–
328.15 K, x1 = 0.4762	1.58	1323.3	–
328.15 K, x1 = 0.5	1.929	1340.7	–
328.15 K, x1 = 0.5238	1.812	1361.9	–
328.15 K, x1 = 0.5652	1.67	1402.4	–
328.15 K, x1 = 0.6	1.59	1436.3	–
333.15 K, x1 = 0.3704	0.691	1249.2	–
333.15 K, x1 = 0.4	0.913	1267.8	–
333.15 K, x1 = 0.4348	1.27	1290.7	–
333.15 K, x1 = 0.4545	1.48	1304.6	–
333.15 K, x1 = 0.4762	1.76	1319.5	–
333.15 K, x1 = 0.5	2.14	1336.5	–
333.15 K, x1 = 0.5238	2.014	1357.7	–
333.15 K, x1 = 0.5652	1.85	1398	–
333.15 K, x1 = 0.6	1.76	1431.8	–
338.15 K, x1 = 0.3704	0.814	1245.5	–
338.15 K, x1 = 0.4	1.05	1263.9	–
338.15 K, x1 = 0.4348	1.436	1286.8	–
338.15 K, x1 = 0.4545	1.66	1300.6	–
338.15 K, x1 = 0.4762	1.96	1315.5	–
338.15 K, x1 = 0.5	2.35	1332.3	–
338.15 K, x1 = 0.5238	2.219	1353.2	–
338.15 K, x1 = 0.5652	2.042	1393.7	–
338.15 K, x1 = 0.6	1.936	1427.3	–
343.15 K, x1 = 0.3704	0.949	1241	–
343.15 K, x1 = 0.4	1.208	1260.3	–
343.15 K, x1 = 0.4348	1.614	1282.6	–
343.15 K, x1 = 0.4545	1.85	1296.7	–
343.15 K, x1 = 0.4762	2.16	1311.3	–
343.15 K, x1 = 0.5	2.58	1328.3	–
343.15 K, x1 = 0.5238	2.435	1349.2	–
343.15 K, x1 = 0.5652	2.24	1389.3	–
343.15 K, x1 = 0.6	2.12	1422.9	–
